Here are results for 1 molecule from ChEMBL document CHEMBL5726444, “Pyrazole derivative” (2017).

pIC50: −log10 of the molar value.

This test addresses cAMP and cAMP-inhibited cGMP 3',5'-cyclic phosphodiesterase 10A (Homo sapiens, UniProt Q9Y233). Nature of the test: Phosphodiersterase Evaluation Assay: IMAP TR-FRET Phosphodiersterase Evaluation Assay Kit (Molecular Device) was used for the measurement. Ten μL of a diluted test compound having each concentration and 5 μL of the enzyme PDE10 (BPA Bioscience) that had been diluted to 2 ng/mL with 1×IMAP Reaction Buffer (prepared with 5×included with the kit, 10 mM Tris-HCl, pH=7.2, 10 mM MgCl2, 0.05% NaN3, and 0.1% BSA) containing 0.1% BSA were added to a 384-well plate (Corning). The obtained mixture was then pre-incubated at room temperature for 5 minutes. Thereafter, 5 μL of cAMP substrate solution which was included with the kit and diluted to 400 nM with 1×IMAP Reaction Buffer containing 0.1% BSA, was added to the reaction solution, and the obtained mixture was reacted at room temperature for 60 minutes. Thereafter, 60 μL of an IMAP TR-FRET Binding solution included with the kit was further added to the reaction solution, and the obtained mixture was then left for 3 hours or more. Subsequently, using ARVO SX (PerkinElmer), the fluorescent intensity of Terbium (Emission=490 nm) and TR-FRET (Emission=520 nm) in the reaction solution were measured at an excitation wavelength of 340 nm, so as to calculate the amount of the generated 5′-AMP. […].

cAMP and cAMP-inhibited cGMP 3',5'-cyclic phosphodiesterase 10A, sequence (Q9Y233 whole entry): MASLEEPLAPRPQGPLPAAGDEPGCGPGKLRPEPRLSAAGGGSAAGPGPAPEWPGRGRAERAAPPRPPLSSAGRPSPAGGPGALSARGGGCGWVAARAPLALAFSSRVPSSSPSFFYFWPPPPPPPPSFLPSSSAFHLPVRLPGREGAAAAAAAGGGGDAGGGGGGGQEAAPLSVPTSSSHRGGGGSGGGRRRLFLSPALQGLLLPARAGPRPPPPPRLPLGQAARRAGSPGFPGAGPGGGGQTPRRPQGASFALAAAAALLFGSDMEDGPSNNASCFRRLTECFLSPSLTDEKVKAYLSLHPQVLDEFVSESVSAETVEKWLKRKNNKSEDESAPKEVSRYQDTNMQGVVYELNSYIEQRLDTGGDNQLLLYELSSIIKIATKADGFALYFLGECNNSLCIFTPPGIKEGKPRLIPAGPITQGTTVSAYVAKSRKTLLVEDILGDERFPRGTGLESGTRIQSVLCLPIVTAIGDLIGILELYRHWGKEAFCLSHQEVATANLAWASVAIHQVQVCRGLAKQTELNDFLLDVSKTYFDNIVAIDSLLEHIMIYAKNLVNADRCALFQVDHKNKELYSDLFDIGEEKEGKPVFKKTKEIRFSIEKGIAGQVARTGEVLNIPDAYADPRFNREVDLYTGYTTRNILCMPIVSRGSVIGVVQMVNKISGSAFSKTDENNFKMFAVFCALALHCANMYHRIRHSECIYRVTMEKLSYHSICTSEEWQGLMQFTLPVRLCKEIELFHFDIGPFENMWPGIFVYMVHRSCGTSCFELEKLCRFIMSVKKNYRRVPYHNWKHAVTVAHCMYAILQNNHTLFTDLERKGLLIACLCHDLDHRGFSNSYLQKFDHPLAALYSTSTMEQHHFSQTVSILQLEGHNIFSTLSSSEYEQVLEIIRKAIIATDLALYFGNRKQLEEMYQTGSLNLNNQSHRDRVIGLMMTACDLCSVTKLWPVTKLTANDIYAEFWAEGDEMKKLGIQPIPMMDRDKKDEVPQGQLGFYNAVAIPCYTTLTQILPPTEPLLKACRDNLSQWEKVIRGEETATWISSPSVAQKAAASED

Usually pIC50 stands for −log10 of the IC50, conventionally taken in molar units. Consider `Cc1cccc(-c2cnn(C)c2C(=O)Nc2cc3nc(N4CCC[C@@H]4C(F)(F)F)nn3cc2F)n1`, for which the negative-log IC50 (pIC50) is over 8.30.
